Laboratory results as given in the NIST ThermoML archive (doi:10.1021/je300826t).
± gives the expanded uncertainty stated by the source.

Key:
[1] = refractive index (Na D-line) (dimensionless); settings: 298.15 K; 101.33 kPa; Liquid; Standard Abbe refractometry
[2] = 298.15 K; 101.33 kPa; Liquid; Vibrating tube method

Row | SMILES | refractive index [1] | mass density [2] [kg/m3]
1 | CCCCn1cc[n+](C)c1.COS(=O)(=O)[O-] [1-butyl-3-methylimidazolium methyl sulfate] | 1.47792 ± 0.0007 | 1212.59 ± 0.41
2 | C1CCCCC1 [cyclohexane] | 1.4236 ± 0.00068 | 773.8 ± 0.13
3 | c1ccccc1 [benzene] | 1.49774 ± 0.00068 | 873.57 ± 0.11

Continued, values first:

Row | refractive index [1] | mass density [2] [kg/m3] | SMILES
4 | 1.42062 ± 0.0007 | 765.02 ± 0.24 | CC1CCCCC1 [methylcyclohexane]
5 | 1.45598 ± 0.0007 | 831.47 ± 0.24 | C1CCCCCCC1 [cyclooctane]
6 | 1.49304 ± 0.00068 | 862.51 ± 0.11 | CCc1ccccc1 [ethylbenzene]
